Reference: paper PMC7397269, “Synthesis and Evaluation of New Coumarin Derivatives as Antioxidant, Antimicrobial, and Anti-Inflammatory Agents” (Molecules, 2020)
≈ marks a conversion by molar mass, not a printed value. Where “and” joins values, the source holds several entries; their conditions need not be identical. Identical values can stand only once.

How the values were obtained:
[1] = tested on: Bacillus megaterium ATCC 9885; assay: MIC, two-fold serial dilution, B. megaterium; type: cell-based; conditions: Priestia megaterium, ATCC9885, read-out: Minimum inhibitory concentration, BM
Summary of the method: (§1)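 Compounds with agar-well inhibition zone >16 mm went on to two-fold broth dilution at final 1000, 500, 250 and 125 μg/mL. Inocula were 1×10^8 CFU/mL for bacteria and 1×10^6 CFU/mL for yeast (0.1 mL per 5 mL), incubated 37 °C for 24 h. MIC taken as the lowest concentration with no growth.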

COX-2 = target: T1, COX-2 (Homo sapiens, UniProt P35354); assay: COX-2 inhibition, Cayman assay kit; type: biochemical; conditions: for IC50: mean of two determinations; for SI, selectivity index (COX-1/COX-2): ratio of COX-1/COX-2 IC50
T1 construct: purchased Cayman Chemical 701080
T1 sequence (P35354 18-604): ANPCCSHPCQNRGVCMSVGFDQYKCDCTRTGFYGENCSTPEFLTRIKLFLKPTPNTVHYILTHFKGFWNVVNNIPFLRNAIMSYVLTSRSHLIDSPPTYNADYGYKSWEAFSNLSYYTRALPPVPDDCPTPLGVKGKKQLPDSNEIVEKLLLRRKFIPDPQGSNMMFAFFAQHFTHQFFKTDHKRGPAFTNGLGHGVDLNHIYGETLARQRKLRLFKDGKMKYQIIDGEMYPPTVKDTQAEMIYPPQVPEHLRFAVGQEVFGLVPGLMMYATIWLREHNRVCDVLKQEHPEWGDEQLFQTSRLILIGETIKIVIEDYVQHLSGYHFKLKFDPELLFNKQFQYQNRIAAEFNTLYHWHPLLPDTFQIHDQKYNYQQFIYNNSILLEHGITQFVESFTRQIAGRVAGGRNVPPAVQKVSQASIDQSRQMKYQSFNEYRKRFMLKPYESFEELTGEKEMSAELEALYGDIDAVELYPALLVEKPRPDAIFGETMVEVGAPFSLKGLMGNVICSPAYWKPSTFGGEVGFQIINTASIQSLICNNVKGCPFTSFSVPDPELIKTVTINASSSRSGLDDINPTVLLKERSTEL

[2] = tested on: Pseudomonas aeruginosa ATCC 27,953; assay: MIC, two-fold serial dilution, P. aeruginosa; type: cell-based; conditions: ATCC27, read-out: Minimum inhibitory concentration, PA
Summary of the method: as §1

[3] = tested on: Staphylococcus aureus ATCC 29213; assay: Agar well diffusion, S. aureus; type: cell-based; conditions: ATCC29213, 100 μL of 10 mg/mL in DMSO, read-out: diameter of inhibition zone, SA
Summary of the method: (§2)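 Agar well diffusion; NA for bacteria, SDA for yeast; inoculum 1 × 10^8 CFU/mL bacteria, 1 × 10^6 CFU/mL yeast. 100 μL of 10 mg/mL compound in DMSO per 10 mm well. 24 h, 37 °C; zone diameter, mm, n=3.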

trypsin = assay: Proteinase-inhibitory activity; type: biochemical; conditions: 250 µg/mL; mean ± SD (n = 3)
Summary of the method: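 Trypsin (0.06 mg per 2 mL, 20 mM Tris-HCl pH 7.4) was preincubated 5 min with test sample at 250 µg/mL, then 0.8% casein was added for 20 min. Perchloric acid stopped the reaction and supernatant absorbance was read at 280 nm. % inhibition is relative to the no-sample control, in triplicate.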

[4] = tested on: Candida albicans NRRL Y-477; assay: Agar well diffusion, C. albicans; type: cell-based; conditions: NRRLY477, 100 μL of 10 mg/mL in DMSO, read-out: diameter of inhibition zone, CA
Summary of the method: as §2

[5] = tested on: Candida albicans NRRL Y-477; assay: MIC, two-fold serial dilution, C. albicans; type: cell-based; conditions: NRRLY477, read-out: Minimum inhibitory concentration, CA
Summary of the method: as §1

[6] = tested on: Staphylococcus aureus ATCC 29213; assay: MIC, two-fold serial dilution, S. aureus; type: cell-based; conditions: ATCC29213, read-out: Minimum inhibitory concentration, SA
Summary of the method: as §1

[7] = tested on: Pseudomonas aeruginosa ATCC 27,953; assay: Agar well diffusion, P. aeruginosa; type: cell-based; conditions: ATCC27, 100 μL of 10 mg/mL in DMSO, read-out: diameter of inhibition zone, PA
Summary of the method: as §2

COX-1 = target: T2, COX-1 (Homo sapiens, UniProt P23219); assay: COX-1 inhibition, Cayman assay kit; type: biochemical; conditions: mean of two determinations
T2 construct: purchased Cayman Chemical 701070
T2 sequence (P23219 24-599): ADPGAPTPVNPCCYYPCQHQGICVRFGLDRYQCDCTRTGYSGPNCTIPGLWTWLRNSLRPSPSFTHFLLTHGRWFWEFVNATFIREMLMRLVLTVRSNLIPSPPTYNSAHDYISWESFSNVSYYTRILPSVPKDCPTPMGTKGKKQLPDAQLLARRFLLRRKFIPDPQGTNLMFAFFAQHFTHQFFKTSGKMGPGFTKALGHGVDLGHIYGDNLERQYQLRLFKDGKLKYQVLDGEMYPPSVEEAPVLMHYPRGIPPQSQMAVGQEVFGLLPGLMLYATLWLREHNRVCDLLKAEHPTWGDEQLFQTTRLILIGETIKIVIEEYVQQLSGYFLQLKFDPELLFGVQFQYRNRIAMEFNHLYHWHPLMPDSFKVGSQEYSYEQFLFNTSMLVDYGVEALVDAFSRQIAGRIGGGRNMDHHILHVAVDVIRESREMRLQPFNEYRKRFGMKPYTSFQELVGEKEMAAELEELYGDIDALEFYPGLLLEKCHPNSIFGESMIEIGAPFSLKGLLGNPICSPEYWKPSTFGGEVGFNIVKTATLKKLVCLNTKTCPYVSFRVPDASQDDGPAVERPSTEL

Compound | MIC [1] [µg/mL] | IC50 (COX-2) [µM] | SI, selectivity index (COX-1/COX-2) (COX-2) | MIC [2] [µg/mL] | zone of inhibition at 10000 µg/mL [3] [mm] | % Inhibition (proteinase) (trypsin) [%] | zone of inhibition at 10000 µg/mL [4] [mm] | MIC [5] [µg/mL] | melting point [°C] | MIC [6] [µg/mL] | zone of inhibition at 10000 µg/mL [7] [mm] | IC50 (COX-1) [µM]
Cc1ccc2oc(=O)c3c(c2c1)OC(N)=C(C#N)C3c1ccc([N+](=O)[O-])cc1 (racemic) [2a, (±)-2-Amino-9-methyl-4-(4-nitrophenyl)-5-oxo-4H,5H-pyrano[3,2-c]chromene-3-carbonitrile] | 500 (≈ 1330 µM) | 2.74 | 42.58 | 500 (≈ 1330 µM) | 24 | 17.38 ± 1.63 | 22 | 500 (≈ 1330 µM) | 259 to 261 | 500 (≈ 1330 µM) | 20 | 117
Cc1ccc2oc(=O)c(S(=O)(=O)Nc3ccccc3)c(O)c2c1 [8b, 4-Hydroxy-6-methyl-2-oxo-N-phenyl-2H-chromene-3-sulfonamide] | 1000 (≈ 3020 µM) | 13.4 | 1.94 | 1000 (≈ 3020 µM) | 20 | 14.3 ± 2.21 | 20 | 1000 (≈ 3020 µM) | 324 to 325 | 1000 (≈ 3020 µM) | 17 | 26
NS(=O)(=O)c1ccc(NS(=O)(=O)c2c(O)c3cc(Cl)ccc3oc2=O)cc1 [7a, 6-Chloro-4-hydroxy-2-oxo-N-(4-sulfamoylphenyl)-2H-chromene-3-sulfonamide] | 500 (≈ 1160 µM) | 17.4 | 13.75 | 250 (≈ 580 µM) | 28 | 18.78 ± 2.05 | 26 | 250 (≈ 580 µM) | 245 to 247 | 250 (≈ 580 µM) | 27 | 239
O=c1oc2ccc(Cl)cc2c(O)c1S(=O)(=O)Nc1ccc(O)cc1 [8c, 6-Chloro-4-hydroxy-N-(4-hydroxyphenyl)-2-oxo-2H-chromene-3-sulfonamide] | 250 (≈ 680 µM) | 11.9 | 1.3 and 1.29 | 250 (≈ 680 µM) | 30 | 41.69 ± 2.83 | 30 | 125 (≈ 340 µM) | 250 to 251 | 125 (≈ 340 µM) | 29 | 15.4
Cc1ccc2oc(=O)c3c(c2c1)OC(/N=C/c1ccc(Cl)cc1Cl)=C(C#N)C3c1ccco1 (racemic) [5f, (±)-2-((2,4-dichlorobenzylidene)amino)-4-(furan-2-yl)-9-methyl-5-oxo-4H,5H-pyrano[3,2-c]chromene-3-carbonitrile] | 1000 (≈ 2100 µM) | 3.1 | 29.1 | 1000 (≈ 2100 µM) | 25 | 26.83 ± 5.33 | 22 | 500 (≈ 1050 µM) | > 300 | 500 (≈ 1050 µM) | 21 | 90.2
O=c1oc2ccc(Cl)cc2c(O)c1S(=O)(=O)Nc1ccccc1 [8a, 6-Chloro-4-hydroxy-2-oxo-N-phenyl-2H-chromene-3-sulfonamide] | 250 (≈ 711 µM) | 8.5 | 2.94 | 500 (≈ 1420 µM) | 26 | 44.7 ± 8.22 | 29 | 250 (≈ 711 µM) | 337 to 339 | 500 (≈ 1420 µM) | 26 | 25
Cc1ccc2oc(=O)c3c(c2c1)OC(N)=C(C#N)C3c1ccco1 (racemic) [2b, (±)-2-Amino-4-(furan-2-yl)-9-methyl-5-oxo-4H,5H-pyrano[3,2-c]chromene-3-carbonitrile] | 500 (≈ 1560 µM) | 4.25 | 47.3 and 47.33 | 1000 (≈ 3120 µM) | 25 | 74.68 ± 3.01 | 23 | 500 (≈ 1560 µM) | 251 to 253 | 500 (≈ 1560 µM) | 21 | 201
Cc1ccc2oc(=O)c(S(=O)(=O)Nc3ccc(O)cc3)c(O)c2c1 [8d, 4-Hydroxy-N-(4-hydroxyphenyl)-6-methyl-2-oxo-2H-chromene-3-sulfonamide] | 250 (≈ 720 µM) | 1.86 | 10.5 and 10.45 | 125 (≈ 360 µM) | 30 | 20.15 ± 7.31 | 30 | 125 (≈ 360 µM) | 253 to 254 | 125 (≈ 360 µM) | 31 | 19.4
Cc1ccc2oc(=O)c(S(=O)(=O)Nc3ccc(S(=O)(=O)Nc4nccs4)cc3)c(O)c2c1 [7f, 4-Hydroxy-6-methyl-2-oxo-N-(4-(N-(thiazol-2-yl)sulfamoyl)phenyl)-2H-chromene-3-sulfonamide] | 250 (≈ 507 µM) | 10.1 | 4.06 | 500 (≈ 1010 µM) | 24 | 43.88 ± 5.6 | 24 | 500 (≈ 1010 µM) | 167 to 169 | 250 (≈ 507 µM) | 24 | 40.9
Cc1ccc2oc(=O)c(S(=O)(=O)Nc3ccc(S(=O)(=O)Nc4ncccn4)cc3)c(O)c2c1 [7d, 4-Hydroxy-6-methyl-2-oxo-N-(4-(N-(pyrimidin-2-yl)sulfamoyl)phenyl)-2H-chromene-3-sulfonamide] | 125 (≈ 256 µM) | 3.35 | 63.96 | 125 (≈ 256 µM) | 30 | 36.84 ± 4.87 | 30 | 125 (≈ 256 µM) | 207 to 209 | 125 (≈ 256 µM) | 25 | 214
O=c1oc2ccc(Cl)cc2c(O)c1S(=O)(=O)Nc1ccc(S(=O)(=O)Nc2nccs2)cc1 [7e, 6-Chloro-4-hydroxy-2-oxo-N-(4-(N-(thiazol-2-yl)sulfamoyl)phenyl)-2H-chromene-3-sulfonamide] | 500 (≈ 973 µM) | 16.1 | 1.84 | 1000 (≈ 1950 µM) | 23 | 19.8 ± 2.54 | 23 | 500 (≈ 973 µM) | 215 to 217 | 500 (≈ 973 µM) | 22 | 29.6
COc1cc(/C=N/C2=C(C#N)C(c3ccc([N+](=O)[O-])cc3)c3c(c4cc(C)ccc4oc3=O)O2)cc(OC)c1OC (racemic) [5c, (±)-9-methyl-4-(4-nitrophenyl)-5-oxo-2-((3,4,5-trimethoxybenzylidene)amino)-4H,5H-pyrano[3,2-c]chromene-3-carbonitrile] | 500 (≈ 903 µM) | 13.3 | 1.39 | 500 (≈ 903 µM) | 23 | 68.5 ± 6.23 | 24 | 500 (≈ 903 µM) | 221 to 223 | 500 (≈ 903 µM) | 25 | 18.5
